Consider 4 molecules from publication PMC5923171, “Novel Zinc-Attenuating Compounds as Potent Broad-Spectrum Antifungal Agents with In Vitro and In Vivo Efficacy” (Antimicrobial Agents and Chemotherapy, 2018).

Converted amounts (≈) assume the structure as drawn.

The subject of one data set is C. albicans SC5314. Description: Time-kill assay. The data set is classed as cell-based, Candida albicans. The note with it: 0.5 μg/ml AMB, 3.6 μg/ml ZAC989, 4.4 μg/ml EDTA, 4.2 μg/ml TPEN; up to 24 h. How it is done: C. albicans SC5314 cells (10^5 CFU/ml) were incubated in 10 ml of RPMI medium at 30°C with gentle agitation (150 rpm) in the presence of EDTA (15 μM), TPEN (10 μM), ZAC989 (10 μM), or AMB (0.5 μM). At the desired time points (0, 3, 5.5, and 24 h), a 100-μl aliquot was removed for each test condition and serially diluted (10-fold) in saline (0.9% NaCl), and 30 μl of each dilution was plated on YPD agar plates. The colony count on each YPD plate was determined after incubation at 30°C for 48 h ([40]). C. albicans cells treated with DMSO (1%, vol/vol) served as a control.

Data set [1] can be described thus: Potentiometric titration with MgCl2. As to conditions: DMSO-water (70:30, vol/vol). The format is binding.
For data set [2], the system named is C. parapsilosis ATCC 22019. Nature of the data set: Antifungal susceptibility testing (MIC). The data set is classed as cell-based, Candida parapsilosis. The note with it: Lodderomyces parapsilosis, ATCC22019; at least 50% growth inhibition, RPMI, 24 h, 34°C. On the procedure: Antifungal susceptibility testing was carried out as described previously ([38], [39]), with a few modifications. Briefly, for each yeast or mold growth inhibition assay, frozen stocks of yeast cells or spores were diluted to a final concentration of 0.5 × 10^5 to 2.5 × 10^5 CFU/ml in sterile water. ZAC989, ZAC307, and ZAC623 were dissolved in DMSO to 10 mM stocks from which half-log serial dilutions were prepared. Growth assays were subsequently performed by pipetting 3 μl of compound dissolved in DMSO (giving a final concentration of 1.5% DMSO), 100 μl of cell-spore suspension, and 97 μl of 2× RPMI medium (20.8 g/liter of RPMI 1640 medium, 69.06 g/liter of morpholinepropanesulfonic acid [MOPS], 36 g/liter of glucose) into a microtiter plate that was incubated for 24 h (yeasts) or 48 to 72 h (molds) at 34°C. Fungal growth was determined spectrophotometrically by optical density reading of each well at a wavelength of 492 nm on a Victor X5 (Perkin-Elmer) plate reader. […] Standard errors between repeated experiments were generally below 5%. The growth effect of exogenous addition of various divalent metals was evaluated by performing the antifungal susceptibility assay in the presence of 5 μM ZAC989 or ZAC307 and with increasing concentrations (0.003 to 50 μM) of ZnSO4, CuSO4, (NH4)2Fe(SO4)2, MgCl2, and CaCl2.

Data set [3] is described as follows: Potentiometric titration with CaCl2. The data set is classed as binding. The note with it: DMSO-water (70:30, vol/vol). On the procedure:
(§1) The Zn^2+-binding properties of ZAC307 and ZAC989 were further evaluated using a potentiometric assay, where pH is measured as a function of base (NaOH) added to the compound in either the absence or presence of metal. […] To determine the deprotonation constant, a solution of 1 mM ZAC307 or ZAC989 was titrated with 0.3 M NaOH at constant ionic strength (Fig. 2A and B). In a second run, the same titration was performed in the presence of 0.5 eq of Zn^2+ for ZAC307 and ZAC989. A shift in the pH curve in the presence of the metal (ZAC307, 0.5 eq of Zn^2+ [Fig. 2A]) compared to the absence of the metal (ZAC307 [Fig. 2A]) indicates binding of Zn^2+ to the compound. The measured pH data were analyzed with the Hyperquad program suite, taking into account all relevant equilibrium constants, including also the constants for metal hydroxylation. The analysis provides the pKa values and metal complex stability constants, as well as ligand-metal complex speciation calculation, indicating how many ZAC molecules are involved in coordinating the Zn^2+ ion at different pH values. […] ZAC989 bound copper with the formation constants log β1, log β2, and log β3 of 7.83, 13.37, and 20.62, respectively. The most dominant ZAC989-copper stoichiometry was a 3:1 stoichiometry (Fig. 2E).
(§2) Potentiometric measurements were carried out in DMSO-water (70:30, vol/vol) at 25°C as described previously ([22]). […]

Data set [4] is described as follows: Potentiometric titration, ligand-Zn(II) complex formation. The format is binding. As to conditions: DMSO-water (70:30, vol/vol), 0.5 eq of Zn^2+. On the procedure: as §1
Potentiometric measurements were carried out in DMSO-water (70:30, vol/vol) at 25°C as described previously ([22]). Titrations were performed with a pH meter (Denver Instruments) utilizing a glass electrode with AgCl reference filled with 3.0 M KCl. The electrode was equilibrated in DMSO-water (70:30, vol/vol) for at least 1 h before use. All experiments were performed at a constant ionic strength (0.1 M NaClO4). Three milliliters of a solution containing 1 mM compound was titrated with 0.3 M NaOH by manual additions in 1- to 5-μl increments with magnetic stirring. The metal-ligand binding constants were obtained from titrations of the metal complex solutions prepared in a 1:2 metal-to-ligand ratio. The titration data were refined by the nonlinear least-squares refinement program Hyperquad2013 ([37]) to determine the deprotonation and stability constants.

Data set [5] has as its target fungal plasma membrane H^+-ATPase (Saccharomyces cerevisiae, UniProt P05030). Nature of the data set: H+-ATPase-inhibitory activity. The format is biochemical.
A short description of data set [6]: Potentiometric titration, deprotonation constant. The format is physicochemical. As to conditions: DMSO-water (70:30, vol/vol), 25°C, 0.1 M NaClO4. On the procedure: as §1, §2
The test system of another data set is HepG2 cells. Nature of the data set: Human hepatocyte (HepG2) proliferation assay. As to conditions: for EC50: 24 h exposure, XTT. The format is cell-based. On the procedure: In each well of a 96-well tissue culture plate (GR-655180; Grenier), 10,000 human hepatocytes (HepG2) (85011430; […] Sigma]) supplemented with 2 mM L-[…]-020-1B; Biological Industries), 1% nonessential amino acids (XC-[…]/100; Biosera), and 10% fetal bovine serum (BI-04-007-1A; Biological Industries), and plates were incubated overnight at 37°C and 5% CO2. […] The plate was incubated for a further 24 h or 72 h at 37°C and 5% CO2. The medium was then replaced with 100 μl of freshly prepared 2,3-bis-(2-methoxy-4-nitro-5-sulfophenyl)-2H-tetrazolium-5-carboxanilide salt (XTT) sodium salt solution (0.5 mg/ml of XTT; […]; Sigma) in RPMI 1640 ([…]; Sigma-Aldrich) with 3.83 μg/ml of phenazine methosulfate ([…]; Sigma-Aldrich) and incubated 2 to 3 h at 37°C and 5% CO2 ([43]). The color reaction was measured on Victor X5 plate reader (Perkin-Elmer) at OD450, and the half-maximal effective concentration (EC50) was calculated. Tamoxifen (85256; Sigma) was used as a positive-control compound.
(Tetrazolium assays rely on reduction of a dye to a coloured formazan, in cell work by metabolically active cells.)

By MIC is commonly meant the lowest concentration found to suppress growth. The term EC50 denotes the concentration that produces a half-maximal response. The low end stands for higher potency in that assay, the high end for lower potency in that assay.

Chain of fungal plasma membrane H^+-ATPase (P05030 whole entry): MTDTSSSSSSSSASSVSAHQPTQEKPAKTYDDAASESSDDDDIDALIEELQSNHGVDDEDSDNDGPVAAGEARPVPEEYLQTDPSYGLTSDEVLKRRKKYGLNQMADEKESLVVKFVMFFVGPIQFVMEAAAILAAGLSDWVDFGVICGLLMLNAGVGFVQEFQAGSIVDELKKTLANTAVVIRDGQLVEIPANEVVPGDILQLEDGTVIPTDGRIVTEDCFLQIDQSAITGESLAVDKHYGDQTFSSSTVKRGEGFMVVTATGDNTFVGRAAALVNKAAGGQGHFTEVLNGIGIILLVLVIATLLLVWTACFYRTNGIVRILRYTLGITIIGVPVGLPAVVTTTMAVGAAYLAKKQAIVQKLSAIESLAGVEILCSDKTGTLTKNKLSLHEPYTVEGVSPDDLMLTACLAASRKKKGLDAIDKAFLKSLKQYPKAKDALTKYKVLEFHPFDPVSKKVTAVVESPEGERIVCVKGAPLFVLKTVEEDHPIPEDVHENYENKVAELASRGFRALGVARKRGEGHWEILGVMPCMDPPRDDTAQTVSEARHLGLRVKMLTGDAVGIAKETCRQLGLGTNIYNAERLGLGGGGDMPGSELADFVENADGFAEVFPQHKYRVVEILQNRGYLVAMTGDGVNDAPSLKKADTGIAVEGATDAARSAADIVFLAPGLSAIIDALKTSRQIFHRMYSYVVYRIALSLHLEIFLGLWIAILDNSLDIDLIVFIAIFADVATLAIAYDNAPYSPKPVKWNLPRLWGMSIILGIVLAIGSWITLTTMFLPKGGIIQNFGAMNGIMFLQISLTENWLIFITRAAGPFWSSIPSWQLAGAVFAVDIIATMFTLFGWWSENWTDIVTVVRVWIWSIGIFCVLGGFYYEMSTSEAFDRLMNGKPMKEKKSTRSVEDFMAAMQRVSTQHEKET

As for `c1ccc(CN(CCN(Cc2ccccn2)Cc2ccccn2)Cc2ccccn2)nc1` [TPEN, N,N,N’,N’-tetrakis(2-pyridylmethyl)-ethylenediamine], the “time-kill activity (fungistatic or fungicidal)” value in the data set on C. albicans SC5314 is given as “fungistatic effect within the first 24 h of exposure”.
Regarding `CN(C)c1cc(-n2nc(-c3ccccc3)cc2O)ncn1` [ZAC307, 2-[6-(dimethylamino)pyrimidin-4-yl]-5-phenyl-pyrazol-3-ol], the “Mg^2+ binding” value in data set [1] is given as “negligible”. For the same molecule, the MIC in data set [2] came to 0.4 µg/mL (≈ 1.42 µM). In addition, the “Ca^2+ binding” value in data set [3] was “negligible”. Besides, in data set [4], the “formation constant log β1 (1:1 ligand-Zn(II) complex)” value amounted to 7.47, the “formation constant log β2 (2:1 ligand-Zn(II) complex)” value was found to be 13.27 and the “formation constant log β3 (3:1 ligand-Zn(II) complex)” value was 18.14. Moreover, the “H^+-ATPase-inhibitory activity” value in data set [5] was “lacked H^+-ATPase-inhibitory activity”. The molecule also displayed a pKa in data set [6] of 6.84.
As to `O=C(O)CN(CCN(CC(=O)O)CC(=O)O)CC(=O)O` [EDTA], in the data set with C. albicans SC5314, the “time-kill activity (fungistatic or fungicidal)” value was “fungistatic effect within the first 24 h of exposure”. Further, in the data set with HepG2 cells, the “effect on the proliferation of HepG2 cells (in words)” value is listed as “did not affect the proliferation of HepG2 cells” and the EC50 is more than 29 µg/mL.
On to `Cc1cc(O)n(-c2cc(N3CC[C@H](Oc4cnccc4C#N)C3)ncn2)n1` [ZAC989, 3-[(3S)-1-[6-(5-hydroxy-3-methyl-pyrazol-1-yl)pyrimidin-4-yl]pyrrolidin-3-yl]oxy-pyridine-4-carbonitrile], for which the “Mg^2+ binding” value in data set [1] is “negligible”. The molecule further yielded an MIC in data set [2] of 0.8 µg/mL (≈ 2.2 µM). Also, the “Ca^2+ binding” value in data set [3] is on record as “negligible”. In data set [4], the “formation constant log β1 (1:1 ligand-Zn(II) complex)” value came out at 7.35, the “formation constant log β2 (2:1 ligand-Zn(II) complex)” value was determined as 14.30 and the “formation constant log β3 (3:1 ligand-Zn(II) complex)” value is 19.71. The EC50 in the data set with HepG2 cells was more than 36 µg/mL. The “H^+-ATPase-inhibitory activity” value in data set [5] is listed as “lacked H^+-ATPase-inhibitory activity”. This molecule showed a pKa in data set [6] of 7.7.
